Data on 4 compounds can be found in patent EP2397149A1 (Hil-Invent Ges.M.B.H., priority 2010, dated 2011).

Read-outs that look alike come from different tables or passages of the source. Starred links: 1 amine or outer side, 2 acyl side, 3 side chain; linkers in the order of their positions; H or OH if unused. Positions of bridges follow the written chain, without caps; N, C: chain ends. Non-standard residues stand in square brackets, D forms with d. Residues, ends and D or L forms follow the SMILES beside them. Chains are numbered I, II in the order given. Actinocin(9to1) = Cc1c2oc3c(C)ccc(C(=O)[*:1])c3nc-2c(C(=O)[*:2])c(N)c1=O; NMeV = CN[C@H](C(=O)O)C(C)C; Sar = CNCC(=O)O

For assay [1], the system named is B-CLL cells. Briefly: IC50 determination (XTT dye, 48 h). The class given is cell-based, human. On the procedure: 1.5 x 10^6 B-CLL cells and 0.4 x 10^6 CEM-C7H2 cells per well were incubated with different concentrations of the respective substance (0,2, 0,5, 1, 2, 5, 10, 20 µM) and incubated for 48 h. After this XTT-dye solution was added as described above and absorption was measured at 450 nm with 655 nm as reference wavelength. Concentrations that led to a 50 % metabolism reduction were monitored as IC50 value.
Finally, the substances were tested for their toxicity in cell lines from different parts of the human body such as liver (HepG2), kidney (HEK-293), lung (SHP-77), skin keratinocytes (WS-1) and in human umbilical vein endothelial cells from 3 different donors. […] For these substances the mean IC50 (48h) in 4 B-CLL cells samples from 4 different donors was determined and the substances were numbered beginning with the lowest IC50 in B-CLL cells.
(In general: Tetrazolium dyes change colour on reduction, which living cells bring about.)

Assay [2] concerns B-CLL cells bearing the chromosomal aberration del(17p)13. Briefly: Viability / apoptosis of del(17p)13 B-CLL cells (flow cytometry, AnnexinV/7-AAD). The class given is cell-based, human. To be noted: for viability reduction: 160 nM. On the procedure:
(§1) Viability was measured using flow-cytometry (AnnexinV/7-AAD,-/-). […] The length of the box corresponds to the interquartile range (IQR) and is the difference between the 75th and 25th percentiles. The horizontal line in the box is the median. […] Viability of B-CLL cells was assessed using a flow-cytometer (Annex-inV/7-AAD -/-). The length of the box corresponds to the interquartile range (IQR) and is the difference between the 75th and 25th percentiles. The horizontal line in the box is the median. […] Day zero is the day of engraftment with 3x10^6 lymphocytes derived from TCL1 transgenic mice with overt leukemia. […] Blood samples were collected from the tail vein of the respective animal and whole blood was analysed for CD5/CD19 positive cells using a flow-cytometer. […] Dashed line is 0.04 mg/kg and black line is 0.05 mg/kg daily for two weeks.
The supplied substances were solved in 100 µl medium at 37°C 90 min on a rotation shaker and transferred to a 96-well plated. Then 100µl medium containing 1.5 x 10^6 B-CLL cells was added. Final concentration of the substances was 20 µM. After a incubation time of 48 h 50 µl XTT-dye was added and absorption measured as above. […] Only substances that reduced the cell metabolism/dye development > 50 % were counted. The reason for this higher cut off value is the low proliferative activity of B-CLL cells who are mainly in Go arrest. Positive substances were double checked with Annex-inV/7-AAD apoptosis/necrosis staining in CD19+/CD5+ positive cells on a flow cytometer.
On the technique in general: In flow cytometry, cells or beads pass a laser one at a time.

The test system of assay [3] is colon cancer cell line HCT116. Description: Sensitivity of isogenic HCT116 with or without p53 deletion. The class given is cell-based.
The subject of assay [4] is engrafted B-CLL mice (CD5/CD19 cells). On the procedure: (§2) The original Eµ-TCL1a transgenic mice which were generously provided by C. Croce (Ohio) have been back-crossed for > 9 generations to C57BL/6 mice. Mice were killed at stated ages, or when signs of illness developed, and samples for histology, flow cytometry, and miRNA isolation were collected. The tumor load in all lymphoid organs was assessed by flow cytometry following staining for the surface markers CD19, CD5, and IgM. Approval from the Austrian Animal Ethics committee was obtained prior to performing the experiments. Engrafted mice were produced by injecting 3 x 10^6 lymphocytes of a leukemic Eµ-TCL1a transgenic mouse into 30 Black 6 mice from Charles River Laboratories, Sulzfeld, Germany.
First a treatment study included 10 mice.
To assess tumour load development after treatment blood samples were collected from the tail vein (Fig. 4).

In assay [5] the test system is engrafted CLL mice (CD5/CD19 cells). Briefly: Treatment study 02: reduced actinomycin D concentrations in murine B-CLL model. It counts as in vivo. As for the experimental part: as §2
In example 1 a treatment schedule of 0.06 mg/kg daily for two weeks was used. […] To assess the tumour load blood samples were consecutively taken from the tail vein.

Assay [6] concerns engrafted wildtype (C57BL/6) mice (CD5+/CD19+ cells). Briefly: Treatment study 03: head to head comparison of actinomycin D and fludarabine. The class given is in vivo. To be noted: for 50 % survival time after start of treatment / tumour load reduction: actinomycin D 0.06 mg/kg daily for 14 days, fludarabine 34 mg/kg for 5 days; for tumour load reduction: day 22 after treatment start, vs untreated mice. On the procedure: as §1, §2
At day 22 after treatment start tumour load was assessed compared to that of the tumour load of untreated mice.

The subject of assay [7] is B-CLL cells of patients with no p53 aberrations. Briefly: Influence of the p53 inhibitor pifithrin-alpha on drug susceptibility (flow cytometry, AnnexinV/7-AAD). The class given is cell-based, human. On the procedure: as §1
B-CLL cells of patients with no p53 aberrations were treated with 160 nM actinomycin w or w/o 30 µM pifithrin-alpha.

What is called IC50 is the midpoint of a concentration-inhibition curve. For `Cc1c2oc3c(C)ccc(C(=O)N[C@@H]4C(=O)N[C@H](C(C)C)C(=O)N5CCC[C@H]5C(=O)N(C)CC(=O)N(C)[C@@H](C(C)C)C(=O)O[C@@H]4C)c3nc-2c(C(=O)N[C@@H]2C(=O)N[C@H](C(C)C)C(=O)N3CCC[C@H]3C(=O)N(C)CC(=O)N(C)[C@@H](C(C)C)C(=O)O[C@@H]2C)c(N)c1=O` [actinomycin D] (I: T[dV]P[Sar][NMeV] / II: T[dV]P[Sar][NMeV]; ester I:1-I:C, II:1-II:C; linker I:N-II:N via Actinocin(9to1)), the IC50 in assay [1] (4 B-CLL cells samples from 4 different donors, 48 h, in vitro, read-out: mean IC50 (48h)) was found to be 80 nM. Besides, the “viability (Fig. 1)” value in assay [2] (20 nM, 48 h, 4 p53 deleted, fludarabine resistant B-CLL patients, p < 0.001) is recorded as “significant viability reduction”. Moreover, the “apoptosis induced in % of B-CLL cells” value in assay [2] (20 nM, within 48 h, del(17p)13 B-CLL cells (Fig. 1)) was above 80%. The viability reduction in assay [2] (del(17p)13 B-CLL samples derived from peripheral blood) is listed as above 45%. The same compound gave a viability reduction in assay [2] (one del(17p)13 sample derived from the bone marrow) of 38%. In assay [2] (20 µM, three B-CLL samples of patients with del(17p)13), the apoptosis induction entry is “able to induce apoptosis in all three B-CLL cells samples”. Moreover, the “effect of p53 deletion on actinomycin D susceptibility” value in assay [3] is on record as “no effect”. Besides, the “survival difference to the mock treated animals (Fig. 3)” value in assay [4] (0,06 mg/kg daily for two weeks vs PBS) is “highly significant”. In addition, in assay [4] (CD5/CD19 counts back at the initial value at day 135), the “time after the initial therapy until retreatment” value was found to be 85 days. The “CD5/CD19 count after treatment” value in assay [4] (treatment at day 50, three surviving animals, tail vein blood) is listed as “A reduction of the CD5/CD19 count can be observed in all three animals”. For the same compound, the “tumour cells after treatment” value in assay [5] (0.05 mg/kg or 0.04 mg/kg daily for two weeks, two mice each, start 47 days after engraftment) is reported as “severe reduction of tumour cells”. In addition, the “time until tumour load increased to the initial values after the first treatment” value in assay [5] (0.05 or 0.04 mg/kg daily for two weeks, after first treatment) is on record as 46 days. For the same compound, the “time until CD5/CD19 counts increased again after the second treatment” value in assay [5] (0.05 or 0.04 mg/kg daily for two weeks, after retreatment) stood at 44 days. The “tumour load (CD5+/CD19+ cell count), Fig. 6” value in assay [6] (22 days after treatment start) is given as “highly significant tumour load reduction”. Moreover, in assay [6], the “50 % survival time after start of treatment” value was determined as 103 days and the tumour load reduction entry is listed as “more than 80%”.
Turning to `CN1CC[C@H](c2c(O)cc(O)c3c(=O)cc(-c4ccccc4Cl)oc23)[C@H](O)C1` [flavopiridol], in assay [7] (with or without 30 µM pifithrin-alpha, 48 h, 160 nM actinomycin (text; Fig. 2: 20 nM), 50 nM flavopiridol, 10 µM fludarabine), the synergism with pifithrin-alpha entry is “synergistic with pifithrin-alpha”.
Turning to `Nc1nc(F)nc2c1ncn2[C@@H]1O[C@H](CO)[C@@H](O)[C@@H]1O` [fludarabine], the IC50 in assay [1] (Homo sapiens, B-CLL, read-out: double IC50 determined for fludarabine, printed as the double IC50, unclear whether 3µM is the IC50 or its double) was found to be 3000 nM. In addition, in assay [6], the “50 % survival time after start of treatment” value is listed as 47 days and the tumour load reduction was 20%.
As for `Cc1ccc(C(=O)Cn2c3c(sc2=N)CCCC3)cc1` [pifithrin-alpha], the “effect of pifithrin-alpha alone on viability of CLL cells” value in assay [7] (30 µM, alone) is recorded as “no effect on viability”.
